Like-named read-outs stand apart in the source and are kept apart here.
Assays:
[1] = test system: Staphylococcus aureus ATCC 6538, Klebsiella pneumoniae ATCC 8308, Bacillus subtillus ATCC 8473, Escherichia coli ATCC 11229; test: Biocidal activity against standard aerobic bacterial strains in 0.85% NaCl solution, live count by serial dilution; type: cell-based; details: biocide alone; average for four standard aerobic bacteria; ~10^7 CFU/mL, 37° C.
Description: (§1) A sterile 0.85% NaCl solution is contaminated with bacterial inoculums at final bacterial concentrations of ˜10^7 CFU/mL. At day zero, either oxazolidine compound (BIOBAN™ CS-1135, 78% 4,4-dimethyloxazolidine in water, The Dow Chemical Company, or BIOBAN™ CS-1246, 97.5% 7-ethylbicyclooxazolidine in water, The Dow Chemical Company), THPS (AQUCAR™ THPS 75, 75% THPS in water, The Dow Chemical Company), or a combination of oxazolidine compound and THPS is added and the solution mixed well to provide a desired final concentration. […]
The testing protocol described above is used for the standard bacterial strains Staphylococcus aureus ATCC 6538, Klebsiella pneumoniae ATCC 8308, Bacillus subtillus ATCC 8473, Escherichia coli ATCC 11229.
(§2) The testing protocol described in Example 1 is used for aerobic bacteria and anaerobic sulfate reducing bacteria.

[2] = test system: oil/gas field-isolated sulfate reducing bacteria (SRB); test: Biocidal activity against oil/gas field-isolated sulfate reducing bacteria under anaerobic environment in deaerated salt solution; type: cell-based
Description: as §1
The protocol used to test against oil/gas field-isolated sulfate reducing bacteria (SRB) is performed as described above, but under anaerobic environment (Bactron III anaerobic chamber) and using a deaerated sterile salt solution (1.2490 g NaCl, 2.9290 g NaHCO3, 0.1910 g Na2CO3, 0.0060 g Na2SO4, 0.033 g CaCl2, and 0.0590 g MgCl2.6H2O in 1 L water) instead of 0.85% NaCl solution.
as §2

[3] = biocide alone, field anaerobic SRB, anaerobic chamber

CCC12COCN1COC2 [7-ethylbicyclooxazolidine, 5-ethyl-1-aza-3,7-dioxabicyclo[3.3.0]octane]
Concentration required to achieve at least 3 log bacterial reduction in 1 hr [1]: 272.04 ppm, active | Concentration required to achieve at least 3 log bacterial reduction in 1 hr [2, 3]: >1000 ppm, active

tetrakis(hydroxymethyl)phosphonium sulfate [THPS]
Concentration required to achieve at least 3 log bacterial reduction in 1 hr [1]: 44.49 ppm, active | Concentration required to achieve at least 3 log bacterial reduction in 1 hr [2]: 33.35 ppm, active

CC1(C)COCN1 [4,4-dimethyloxazolidine]
Concentration required to achieve at least 3 log bacterial reduction in 1 hr [1]: 272.04 ppm, active | Concentration required to achieve at least 3 log bacterial reduction in 1 hr [2, 3]: 1000 ppm, active
